Values of other authors, collected in patent US7998474B2, “Methods for treating an inflammatory disease of the bowel” (Rowett Research Institute, priority 2001, dated 2011).

Tested on: Clostridium perfringens serotype A
Details: mouse, in vivo; cited from earlier work

Bacteroides thetaiotaomicron [BT]
Resistance of ex-germ free mice to infection by Clostridium perfringens serotype A: did not however increase the resistance
